Legend:
[1] = test system: DOHH2 cells; assay: Cell proliferation assay (MTS), DOHH2 cells, 120 h; format: cell-based; conditions: Homo sapiens, DOHH-2, 120 h
In short: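 RS4;11 and DOHH2 cells at 5000 cells/well in RPMI-1640 with 10% FBS were treated with compound at 1.5–10000 nM final, nine points, at 37 °C, 5% CO2. Exposure was 72 h for RS4;11 and 120 h for DOHH2. MTS was added for 2 h, absorbance read at 490/650 nm, and IC50 calculated.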

[2] = test system: RS4;11 cells; assay: Cell proliferation assay (MTS), RS4;11 cells, 72 h; format: cell-based; conditions: Homo sapiens, RS4-11, 72 h
Excerpt: Cell Proliferation Assays
MTS testing kit was purchased from Promega. The RPMI-1640, Fetal bovine serum and Penicillin-Streptomycin were purchased from Gibco. Dimethyl sulfoxide (DMSO) was purchased from Sigma.
To investigate whether a compound is able to inhibit the activity of BCL-2 in cells, a mechanism-based assay using DOHH2 (DSMZ No.® ACC 47) and RS4;11 (ATCC® CRL-1873™) cell was developed. In this assay, inhibition of Bcl-2 was detected by the inhibition of DOHH2 cells proliferation. DOHH2 cells were cultured in culture flasks to 40-80% confluence in RPMI-1640 plus 10% fetal bovine serum. Cells were collected and plated onto 96-well plates at desired cell density (5000 cells/well). Plates were incubated overnight at 37° C., with 5% CO2 to adhere. Compounds were added to the plates, and the final compound concentrations were 10000, 3333, 1111, […], 124, 41, 14, 4.6 and 1.5 nM. Plates plated with DOHH2 or RS4;11 cells were placed at 37° C., with 5% CO2 for 120 h (DOHH2) or 72 h (RS4;11) respectively. 20 μl MTS/100 μl medium mixture solution were added to each well and incubate the plates for exactly 2 hours. The reaction was stopped by adding 25 μl 10% SDS per well. Measure absorbance at 490 nm and 650 nm (reference wavelength). IC50 was calculated using GraphPad Prism 5.0.
Select compounds prepared as described above were assayed according to the biological procedures described herein.

Row | Structure (SMILES) | IC50 [2] [nM] | IC50 [1] [nM]
1 | CN1CCN(C[C@@H]2Cc3cc(S(=O)(=O)NC(=O)c4ccc(N5CCN(CC6=C(c7ccc(Cl)cc7)CC(C)(C)CC6)CC5)cc4Oc4cnc5[nH]ccc5c4)cc([N+](=O)[O-])c3N2)CC1 [Example 1-3, (S)-2-((1H-pyrrolo[2,3-b]pyridin-5-yl)oxy)-4-(4-((4′-chloro-5,5-dimethyl-3,4,5,6-tetra-hydro-[1,1′-biphenyl]-2-yl)methyl)piperazin-1-yl)-N-((2-((4-methylpiperazin-1-yl)meth-yl)-7-nitroindolin-5-yl)sulfonyl)benzamide] | 8 | 20
2 | CN1CCN(C[C@H]2Cc3cc(S(=O)(=O)NC(=O)c4ccc(N5CCN(CC6=C(c7ccc(Cl)cc7)CC(C)(C)CC6)CC5)cc4Oc4cnc5[nH]ccc5c4)cc([N+](=O)[O-])c3N2)CC1 [Example 1-7, (R)-2-((1H-pyrrolo[2,3-b]pyridin-5-yl)oxy)-4-(4-((4′-chloro-5,5-dimethyl-3,4,5,6-tetra-hydro-[1,1′-biphenyl]-2-yl)methyl)piperazin-1-yl)-N-((2-((4-methylpiperazin-1-yl)meth-yl)-7-nitroindolin-5-yl)sulfonyl)benzamide] | 3 | 26
3 | CC1(C)CCC(CN2CCN(c3ccc(C(=O)NS(=O)(=O)c4cc5c(c([N+](=O)[O-])c4)N[C@@H](CO)C5)c(Oc4cnc5[nH]ccc5c4)c3)CC2)=C(c2ccc(Cl)cc2)C1 [Example 1-11, (R)-2-((1H-pyrrolo[2,3-b]pyridin-5-yl)oxy)-4-(4-((4′-chloro-5,5-dimethyl-3,4,5,6-tetra-hydro-[1,1′-biphenyl]-2-yl)methyl)piperazin-1-yl)-N-((2-(hydroxymethyl)-7-nitroindolin-5-yl)sulfonyl)benzamide] | 69 | 154
4 | CN1CCN(CC[C@@H]2Cc3cc(S(=O)(=O)NC(=O)c4ccc(N5CCN(CC6=C(c7ccc(Cl)cc7)CC(C)(C)CC6)CC5)cc4Oc4cnc5[nH]ccc5c4)cc([N+](=O)[O-])c3N2)CC1 [Example 1-12, (S)-2-((1H-pyrrolo[2,3-b]pyridin-5-yl)oxy)-4-(4-((4′-chloro-5,5-dimethyl-3,4,5,6-tetra-hydro-[1,1′-biphenyl]-2-yl)methyl)piperazin-1-yl)-N-((2-(2-(4-methylpiperazin-1-yl)eth-yl)-7-nitroindolin-5-yl)sulfonyl)benzamide] | 58 | 299
5 | CN1CCN(CC[C@H]2Cc3cc(S(=O)(=O)NC(=O)c4ccc(N5CCN(CC6=C(c7ccc(Cl)cc7)CC(C)(C)CC6)CC5)cc4Oc4cnc5[nH]ccc5c4)cc([N+](=O)[O-])c3N2)CC1 [Example 1-15, (R)-2-((1H-pyrrolo[2,3-b]pyridin-5-yl)oxy)-4-(4-((4′-chloro-5,5-dimethyl-3,4,5,6-tetrahydro-[1,1′-biphenyl]-2-yl)methyl)piper-azin-1-yl)-N-((2-(2-(4-methylpiperazin-1-yl)ethyl)-7-nitroindolin-5-yl)sulfonyl) benzamide] | 15 | 50
6 | CC1(C)CCC(CN2CCN(c3ccc(C(=O)NS(=O)(=O)c4cc5c(c([N+](=O)[O-])c4)N[C@@H](CCN4CCC(C)(O)CC4)C5)c(Oc4cnc5[nH]ccc5c4)c3)CC2)=C(c2ccc(Cl)cc2)C1 [Example 1-17, (R)-2-((1H-pyrrolo[2,3-b]pyridin-5-yl)oxy)-4-(4-((4′-chloro-5,5-dimethyl-3,4,5,6-tetra-hydro-[1,1′-biphenyl]-2-yl)methyl)piperazin-1-yl)-N-((2-(2-(4-hydroxy-4-methylpiper-idin-1-yl)ethyl)-7-nitroindolin-5-yl)sulfonyl) benzamide] | 56 | 61

The next lines start with results.

Row | IC50 [2] [nM] | Structure (SMILES) | IC50 [1] [nM]
7 | 38 | CC1(C)CCC(CN2CCN(c3ccc(C(=O)NS(=O)(=O)c4cc5c(c([N+](=O)[O-])c4)N[C@H](CCN4CCOCC4)C5)c(Oc4cnc5[nH]ccc5c4)c3)CC2)=C(c2ccc(Cl)cc2)C1 [Example 1-2, (S)-2-((1H-pyrrolo[2,3-b]pyridin-5-yl)oxy)-4-(4-((4′-chloro-5,5-dimethyl-3,4,5,6-tetrahydro-[1,1′-biphenyl]-2-yl)methyl)piperazin-1-yl)-N-((2-(2-morpholinoethyl)-7-nitroindolin-5-yl)sulfonyl)benzamide] | 79
8 | 51 | CN(C)C[C@@H]1Cc2cc(S(=O)(=O)NC(=O)c3ccc(N4CCN(CC5=C(c6ccc(Cl)cc6)CC(C)(C)CC5)CC4)cc3Oc3cnc4[nH]ccc4c3)cc([N+](=O)[O-])c2N1 [Example 1-5] | 211
9 | 1 | CC1(C)CCC(CN2CCN(c3ccc(C(=O)NS(=O)(=O)c4cc5c(c([N+](=O)[O-])c4)N[C@@H](CN4CCOCC4)C5)c(Oc4cnc5[nH]ccc5c4)c3)CC2)=C(c2ccc(Cl)cc2)C1 [Example 1-8, (R)-2-((1H-pyrrolo[2,3-b]pyridin-5-yl)oxy)-4-(4-((4′-chloro-5,5-dimethyl-3,4,5,6-tetra-hydro-[1,1′-biphenyl]-2-yl)methyl)piperazin-1-yl)-N-((2-(morpholinomethyl)-7-nitro-indolin-5-yl)sulfonyl)benzamide] | 27
10 | 80 | CC1(C)CCC(CN2CCN(c3ccc(C(=O)NS(=O)(=O)c4cc5c(c([N+](=O)[O-])c4)N[C@@H](CN4CCC(C)(O)CC4)C5)c(Oc4cnc5[nH]ccc5c4)c3)CC2)=C(c2ccc(Cl)cc2)C1 [Example 1-9, (R)-2-((1H-pyrrolo[2,3-b]pyridin-5-yl)oxy)-4-(4-((4′-chloro-5,5-dimethyl-3,4,5,6-tetra-hydro-[1,1′-biphenyl]-2-yl)methyl)piperazin-1-yl)-N-((2-((4-hydroxy-4-methylpiperidin-1-yl)methyl)-7-nitroindolin-5-yl)sulfonyl) benzamide] | 66
11 | 16 | CN(C)C[C@H]1Cc2cc(S(=O)(=O)NC(=O)c3ccc(N4CCN(CC5=C(c6ccc(Cl)cc6)CC(C)(C)CC5)CC4)cc3Oc3cnc4[nH]ccc4c3)cc([N+](=O)[O-])c2N1 [Example 1-10, (R)-2-((1H-pyrrolo[2,3-b]pyridin-5-yl)oxy)-4-(4-((4′-chloro-5,5-dimethyl-3,4,5,6-tetra-hydro-[1,1′-biphenyl]-2-yl)methyl)piperazin-1-yl)-N-((2-((dimethylamino)methyl)-7-nitroindolin-5-yl)sulfonyl)benzamide] | 33
12 | 74 | CC1(C)CCC(CN2CCN(c3ccc(C(=O)NS(=O)(=O)c4cc5c(c([N+](=O)[O-])c4)N[C@H](CCN4CCC(C)(O)CC4)C5)c(Oc4cnc5[nH]ccc5c4)c3)CC2)=C(c2ccc(Cl)cc2)C1 [Example 1-13, (S)-2-((1H-pyrrolo[2,3-b]pyridin-5-yl)oxy)-4-(4-((4′-chloro-5,5-dimethyl-3,4,5,6-tetra-hydro-[1,1′-biphenyl]-2-yl)methyl)piperazin-1-yl)-N-((2-(2-(4-hydroxy-4-methylpiper-idin-1-yl)ethyl)-7-nitroindolin-5-yl)sulfonyl) benzamide] | 91
13 | 52 | CN(C)CC[C@@H]1Cc2cc(S(=O)(=O)NC(=O)c3ccc(N4CCN(CC5=C(c6ccc(Cl)cc6)CC(C)(C)CC5)CC4)cc3Oc3cnc4[nH]ccc4c3)cc([N+](=O)[O-])c2N1 [Example 1-14, (S)-2-((1H-pyrrolo[2,3-b]pyridin-5-yl)oxy)-4-(4-((4′-chloro-5,5-dimethyl-3,4,5,6-tetra-hydro-[1,1′-biphenyl]-2-yl)methyl)piperazin-1-yl)-N-((2-(2-(dimethylamino)ethyl)-7-nitroindolin-5-yl)sulfonyl)benzamide] | 57
14 | 16 | CC1(C)CCC(CN2CCN(c3ccc(C(=O)NS(=O)(=O)c4cc5c(c([N+](=O)[O-])c4)N[C@@H](CCN4CCOCC4)C5)c(Oc4cnc5[nH]ccc5c4)c3)CC2)=C(c2ccc(Cl)cc2)C1 [Example 1-16, (R)-2-((1H-pyrrolo[2,3-b]pyridin-5-yl)oxy)-4-(4-((4′-chloro-5,5-dimethyl-3,4,5,6-tetra-hydro-[1,1′-biphenyl]-2-yl)methyl)piperazin-1-yl)-N-((2-(2-morpholinoethyl)-7-nitro-indolin-5-yl)sulfonyl)benzamide] | 73
15 | 18 | CN(C)CC[C@H]1Cc2cc(S(=O)(=O)NC(=O)c3ccc(N4CCN(CC5=C(c6ccc(Cl)cc6)CC(C)(C)CC5)CC4)cc3Oc3cnc4[nH]ccc4c3)cc([N+](=O)[O-])c2N1 [Example 1-18, (R)-2-((1H-pyrrolo[2,3-b]pyridin-5-yl)oxy)-4-(4-((4′-chloro-5,5-dimethyl-3,4,5,6-tetra-hydro-[1,1′-biphenyl]-2-yl)methyl)piperazin-1-yl)-N-((2-(2-(dimethylamino)ethyl)-7-nitroindolin-5-yl)sulfonyl)benzamide] | 5

— patent US11091478B2 (Fochon Pharmaceuticals, Ltd., priority 2017, dated 2021)
